From the METLIN SMRT retention time set (Domingo-Almenara et al. 2019)

Assay: gradient 5% acetonitrile 3 min, to 50% in 2 min, to 85% in 15 min, held 3 min, 100 µL/min
Conditions: column: Zorbax Extend-C18 2.1 x 50 mm; eluents: water / acetonitrile, 0.1% formic acid
Outline: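 Standards, all pure, were combined into mixtures of ~100 molecules and run at 100 μL/min on a Zorbax Extend-C18 column (2.1 × 50 mm, 1.8 μm) with water and acetonitrile, each containing 0.1% formic acid. A coupled quadrupole time-of-flight mass spectrometer operated in positive and negative ionization mode. Retention time values come from computationally picked adduct peaks, each inspected manually.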

Structure (SMILES)	RP-LC retention time [s]
Cc1cc2c(cc1S(=O)(=O)N1CCCC1C(=O)N1CCc3ccccc31)OC(C)C(=O)N2 (stereo not drawn)	825
O=S(=O)(c1cccc(-c2nnc(-c3ccc(Cl)cc3)o2)c1)N1CCCCC1	1160
COc1ccc(-c2cn3c(CCC(=O)Nc4ccc5c(c4)OCCO5)csc3n2)cc1	678
CC1CCN(S(=O)(=O)c2ccc(-c3nnc(C(=O)N4CCOCC4)o3)cc2)CC1	797
Cc1ccn2c(Nc3ccccc3C)c(-c3ccccc3)nc2c1	745
CNC(=O)c1nc(-c2ccc(C)cc2)n2c1CCCCC2	702
CCCC1c2nccn2CCCN1C(=O)c1cccn1C (stereo not drawn)	599
O=P(OC1=CCCCC1)(c1ccccc1)c1ccccc1	1030
O=C(c1ccc(F)cc1F)N1CCN(c2ccc3nncn3n2)CC1	601
O=C(O)c1cn(CCc2ccccc2)nc1S(=O)(=O)N1CCSCC1	838
CC(CCNc1ccc(-c2nc(-c3cccc(F)c3)no2)cn1)N1CCCCCC1 (stereo not drawn)	782
Cc1cccc(NC(=O)CN2CCC(COCc3ccccc3)CC2)c1C	610
CNC(=O)NCCC1CCN(S(=O)(=O)c2ccc(C)cc2)CC1	708
O=S(=O)(c1ccccc1)N1CCC(c2noc(-c3ccc(Cl)cc3)n2)CC1	1170
CN(C)c1ccc(CNC(=O)C2CCN(S(=O)(=O)c3cn(C)cn3)CC2)cc1	550
CCOC(=O)c1c(C)c(CCC(=O)N2CCCCCC2)n(C)c1C	897
C#Cc1cccc(Nc2ncnc3cc4c(cc23)OCCOCCOCCO4)c1	674
COc1ccc(-c2cn3cccnc3n2)cc1NC(=O)c1ccc(Cl)cc1	743
Cc1nc(N2CCOCC2)c2c(C(=O)Nc3cc(Cl)ccc3C)c(C)oc2n1	869
Cc1noc(C)c1C(=O)N1CC(F)(F)C[C@H]1c1nc(C2CC2)no1	806

Structure (SMILES)	RP-LC retention time [s]
Cc1ccc(N(C)C(=O)C2CCN(S(=O)(=O)c3ccc4c(c3)NC(=O)CO4)CC2)cc1	780
Cc1cc(C)n(C(CC(=O)O)C(=O)O)n1 (stereo not drawn)	525
Cc1cccc(S(=O)(=O)N2CC3CN(C(=O)CCC(C)C)CC(C2)O3)c1	871
C/C=C(\C)C(=O)O[C@H]1CC[C@@]2(C)[C@@H]3CC[C@H]4[C@]5(O)C[C@H](O)[C@@]6(O)[C@@H](CN7C[C@@H](C)CC[C@H]7[C@@]6(C)O)[C@]5(O)C[C@@]42O[C@]13O	692
COc1ccc(OC)c(-c2nc(Nc3ccc(C)c(Cl)c3)sc2CC(=O)O)c1	972
O=C([C@@H]1C[C@H](F)CN1C(=O)c1cc(F)ccc1F)N1CCCCC1	700
Cc1ccc2[nH]c(=O)c(CCC(=O)NCCCN3CCCC3=O)cc2c1	608
O=C(CCc1c(-c2ccccc2)nc2ccccn12)Nc1ccc(Br)cc1F	722
CCC(=O)N(C1CCOCC1)C1CCN(S(=O)(=O)c2ccc(C)c(C)c2)CC1	869
Cn1cccc1-c1noc(C2CCN(C(=O)C3(c4ccccc4)CC3)C2)n1 (stereo not drawn)	931
CCCN1C(=O)COc2ccc(-c3noc(C4CC(=O)N(c5ccccc5)C4)n3)cc21 (stereo not drawn)	948
O=C(CC1C=Cc2ccccc2N1C(=O)c1ccccc1)c1ccccc1 (stereo not drawn)	1270
COc1ccccc1NC(=O)C1CCN(c2cc(N3CCSCC3)ncn2)CC1	684
O=C(NC1CCCCCC1)C1CCCN(S(=O)(=O)c2c[nH]c(C(=O)N3CCCC3)c2)C1 (stereo not drawn)	815
Cc1ccc([N+](=O)[O-])cc1NC(=O)Nc1ccc(S(N)(=O)=O)cc1	786
COCc1noc(C2CCCCCN2C(=O)NC(C)C)n1 (stereo not drawn)	730
COCCNC(=O)c1cc2c(s1)CCN(C(C)=O)C2	588
CCc1nc2cc(-c3noc(Cc4cccc(Cl)c4)n3)ccc2o1	1170
O=C(Nc1ccccc1)c1csc(-c2ccc(N3CCCC3)nc2)n1	728

Further lines, results first:

RP-LC retention time [s]	Structure (SMILES)
577	Cc1nnc(CNC(=O)C(C)n2nnc3ccccc3c2=O)o1 (stereo not drawn)
1280	Brc1ccc(-c2nnc(SCCCCOc3ccccc3)o2)cc1
833	CCCc1noc(-c2ccc(-n3ncc(C(=O)N4CCOCC4)c3C)nc2)n1
1190	COc1ccccc1-c1csc(-c2nnn(-c3ccc(Cl)cc3)c2N)n1
862	COC(=O)C1=CN(c2ccc(C)cc2)c2ccccc2S1(=O)=O
945	Cc1nc(-c2ccc3c(c2)n(CC(=O)NC2CCCCCCC2)c(=O)n3C(C)C)no1
779	CCOc1ccccc1CNC(=O)C1CCN(C(=O)C2Sc3ccccc3NC2=O)CC1 (stereo not drawn)
884	CC(C)CCNC(=O)C1CCCN(c2nc3ccsc3c(=O)n2-c2ccc(F)cc2)C1 (stereo not drawn)
755	CC(=O)c1cccc(NC(=O)Cn2cc(-c3nnc(C)o3)c3ccccc32)c1
1210	COC(=O)c1ccc2c(=O)n(CCc3ccccc3)c(N3CCCC3)nc2c1
579	Cc1ccc(N2C(=O)c3cccnc3C2CC(=O)N2CCN(c3ccccn3)CC2)cc1 (stereo not drawn)
1170	CCc1nc2cc(-c3noc(Cc4ccccc4Cl)n3)ccc2o1
1080	CCCN(C)S(=O)(=O)c1c(C)nn(-c2ccc(-c3ccccc3)nn2)c1C
1170	CCOC(=O)c1noc2nc(C)nc(NCCc3ccc(OCC)cc3)c12
956	COc1ccccc1-c1noc(Cn2c(=O)n(Cc3ccc4c(c3)OCO4)c(=O)c3sccc32)n1
1130	CCN1C(=O)C2(CCN(S(=O)(=O)c3ccc(C)c(C)c3)CC2)c2ccccc21
1160	Cc1cc(C)cc(Nc2nc(C)cc3nn(CC(=O)N(C)c4ccccc4)c(=O)n23)c1
1100	CCCNC(=O)c1cc2c(-c3cccs3)nn(-c3ccccc3)c2n1CC
959	COc1ccc(-c2nc(-c3nnn(Cc4ccccc4)c3C)no2)cc1OC
736	COc1cccc(CNC(=O)N2CCC(CC(=O)NCc3ccccc3)CC2)c1
1310	CCOc1ccc2cccc(NC(=O)c3cc(C)oc3C)c2n1
782	Cc1ccc(CNC(=O)C2CCN(C(=O)c3ncn4c3COC(c3ccccc3)C4)CC2)cc1 (stereo not drawn)
624	CC1CN(Cc2nc3c(c(=O)n(C)c(=O)n3C)n2CC(=O)c2ccccc2)CC(C)O1 (stereo not drawn)
808	Cc1noc(-c2cccc(OC3CN(C(=O)NCC(C)C)C3)c2)n1
1090	CCOc1ccccc1-c1nc(C2CC(=O)N(c3ccc(C)cc3)C2)no1 (stereo not drawn)

RP-LC retention time [s]	Structure (SMILES)
1090	COc1ccc(Cl)cc1NC(=O)Cn1nc(N2CCCC2)c2ccccc2c1=O
667	O=C(CSc1nc2ccsc2c(=O)n1-c1ccc(F)cc1)Nc1ncn[nH]1
749	COCCNC(=O)Cn1nc(-c2ccc(Cl)cc2)c2c(C)onc2c1=O
880	COc1cc(=O)n(-c2ccccc2C)nc1C(=O)Nc1ccc(OC(F)(F)F)cc1
656	CCCCN(CCCNC(=O)c1cc(C)nn1-c1ccccc1)Cc1ccccc1
1410	CCCN(C(=O)c1ccccc1F)c1nc(-c2ccc(C)cc2)cs1
1260	O=C(Nc1ccc(F)c(F)c1)c1c(O)c2cccnc2n(-c2cccc(F)c2)c1=O
755	C[C@H]1CN(C(=O)Cc2c[nH]c3ccccc23)C[C@@H]1c1nc(-c2cccnc2)no1
882	CCS(=O)(=O)N1CC(=O)N(Cc2cccc(C)c2)C(C)(C(=O)NCc2ccc(F)cc2)C1 (stereo not drawn)
668	Cc1nccn1Cc1nc(-c2ccc(F)c(Br)c2)no1
807	c1cnc(N2CCN(c3nn4nnnc4c4ccccc34)CC2)nc1
933	COc1ccc(NC(=O)N2c3ccccc3CC2c2nc(C3CC3)no2)cc1OC (stereo not drawn)
722	O=C(CC1CCN(C(=O)c2ccc3nc(-c4ccccc4)oc3c2)CC1)NCC1CCCO1 (stereo not drawn)
727	COc1ccc(OCc2nc(-c3ccc4ncn(C(C)C)c4c3)no2)cc1
703	Cc1nc(C)c(C(=O)NC2CCN(c3ccc(=O)n(CCOc4ccccc4)n3)C2)s1 (stereo not drawn)
784	O=C(O)c1ccc2c(c1)n(Cc1cccc(F)c1)c(=O)c1ccnn12
760	Cc1ccc(Cl)c2c1NC(=O)C2(O)CC(=O)c1ccccc1 (stereo not drawn)
808	CCc1ccc2c(c1)cc(S(=O)(=O)c1ccccc1)c(=O)n2CC(=O)NCCCOC
770	CCc1nnc(-c2ccc3ccn(CC(=O)Nc4cc(OC)ccc4OC)c3c2)o1
646	O=C(NCc1ccc(F)cc1F)C1CCN(c2ccc(SCc3ccccc3)nn2)CC1
648	CCOC(=O)C1=C(N)Oc2cc(C)n(CCN(C)C)c(=O)c2C1c1ccccc1F (stereo not drawn)
944	Cc1ccc(-c2ccc(-n3nc(C)c(S(=O)(=O)NC4CC4)c3C)nn2)cc1
649	CCn1cc(CCNC(=O)Nc2ccc(OC)cc2OC)c2cccnc21
630	Nc1nnc(SCc2nnc(-c3ccc4c(c3)OCO4)o2)s1
